Laboratory results reported in US8324380B2, “Amino-heteroaryl-containing prokineticin 1 receptor antagonists” (Janssen Pharmaceutica NV, priority 2007, dated 2012).
Like-named read-outs stand apart in the source and are kept apart here.

How the values were obtained:
rat ileal tissues = assay: PK1-evoked short-circuit current (Isc) in rat ileum mucosa, Ussing-type flux chambers
[1] = target: T1, GPR73 (prokineticin 1 receptor) (Homo sapiens, UniProt Q8TCW9); assay: PK1 functional assay: Ca2+ mobilization on the FLIPR; assay type: cell-based; details: for inhibition at 10 µM: read-out: Ca^2+ Mobilization % Inh @10 µM; for IC50: HEK 293 GPR73 cells, read-out: Ca^2+ Mobilization IC50
T1 construct: expressed in transfected cells; host or cells: HEK 293
T1 sequence (Q8TCW9 whole entry, species assumed): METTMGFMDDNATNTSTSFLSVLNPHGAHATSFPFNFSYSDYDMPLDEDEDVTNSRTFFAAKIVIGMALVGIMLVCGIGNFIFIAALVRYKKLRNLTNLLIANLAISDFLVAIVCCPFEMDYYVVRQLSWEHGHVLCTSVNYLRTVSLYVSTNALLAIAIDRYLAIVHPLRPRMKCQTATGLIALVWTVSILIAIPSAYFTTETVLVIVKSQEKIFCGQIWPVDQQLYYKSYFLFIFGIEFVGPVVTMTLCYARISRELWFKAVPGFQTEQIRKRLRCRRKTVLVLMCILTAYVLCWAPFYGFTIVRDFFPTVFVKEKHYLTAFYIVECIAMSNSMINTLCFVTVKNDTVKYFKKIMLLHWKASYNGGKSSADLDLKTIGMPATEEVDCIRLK
Procedure: At a time of 24 h prior to running the assay, in cell culture media (DMEM containing high Glucose and L-glutamine, 10% FBS, 1% Pen/Streptomycin, 1% Sodium Pyruvate, 20 mM HEPES, Zeocin 200 mg/L), 100 µL of 1.3*10^6/ml HEK 293 GPR73 (prokineticin 1 receptor) expressing cells were plated in a 96 well poly-d-lysine coated plate (Costar), and incubated at 37° C. and 5% CO2. On the day in which the assay was run, the media was removed and 200 µL of 5× Calcium Plus Dye (Molecular Devices) which was previously resuspended with 200 mL of assay buffer [HBSS w/Ca^2+ and Mg^2+ w/o phenol red, 20 mM HEPES, 0.1% BSA, 10 mL probenecid (710 mg probenecid in 5 mL of 1N NaOH, to which was then added 5 mL HBSS containing 20 mM HEPES)] was added to each well of the 96-well plate. The plate was incubated at 37° C. and 5% CO2 for 30 min in dark. The plate was removed and allowed to reach RT for 15 min in the dark. The assay was then run on the FLIPR. In Brief: base line read for 1 min, compound added (25 μL) and incubated for 4 min, 15 seconds, PK1 ligand preparation added (25 μL) for a final concentration of a previously determined EC50 and fluorescence was counted for 1 min, 45 seconds. Baseline is described as the amount of relative fluorescence read when buffer alone is added to cells. Baseline was subtracted from all wells. Percent of control was calculated as follows: (Baseline subtracted well value is divided by baseline subtracted max value)*100. Percent inhibition is 100 minus the percent of control value.
The IC50 is defined as the amount of a given compound required to inhibit 50% of the maximum signal that is generated by the concentration of PK1 preparation used in our assay. IC50 values were calculated using GraphPad Prism.

[2] = test system: ileum mucosal tissues from PK1 receptor knock-out mice; assay: PK1-evoked Isc in ileum mucosal tissues from PK1 receptor knock-out mice; details: exogenous PK1 peptide

| Molecule | inhibition at 10 µM ([1]; 10 µM) [%] | IC50 [1] [nM] | further results |
| --- | --- | --- | --- |
| NC1=N[C@H](O)[C@H]2[C@H]3O[C@]4(O)O[C@@H]([C@@H](O)[C@@]2(N1)[C@@H]4O)[C@]3(O)CO [Tetrodotoxin, reference compound] | – | – | blockade of the pro-secretory effect of PK1 (rat ileal tissues): not blocked |
| CN1[C@@H]2CC[C@H]1C[C@@H](OC(=O)C(CO)c1ccccc1)C2 (some centres unmarked) [Atropine, reference compound] | – | – | blockade of the pro-secretory effect of PK1 (rat ileal tissues): not blocked |
| COc1ccc(Cn2c(NCCc3cnc(N)[nH]3)nc(=O)n(Cc3ccc(SC)cc3)c2=O)cc1 [Cpd 61] | 101 | 21 | inhibition at 10 µM ([1]; 10 µM, (further determination)): 102%; IC50 ([1]; IC50 (further determination)): 19 nM |
| Nc1nc2cc(C(F)(F)F)ccc2n1CCNc1nc(=O)n(Cc2ccc(F)cc2)c(=O)n1Cc1ccc(OC(F)F)cc1 [Cpd 27] | 85 | 310 | – |
| CSc1ccc(Cn2c(=O)nc(NCCc3cnc(N)[nH]3)n(Cc3ccc4c(c3)CCO4)c2=O)cc1 [Cpd 64] | 93 | 170 | – |
| Nc1nc2cccc(F)c2n1CCNc1nc(=O)n(Cc2ccc(F)cc2)c(=O)n1Cc1ccc(OC(F)F)cc1 [Cpd 32] | 94 | 132 | – |
| NC1=Nc2cccc(Cl)c2CN1CCNc1nc(=O)n(Cc2ccc(F)cc2)c(=O)n1Cc1ccc(OC(F)F)cc1 [Cpd 42] | 101 | 63 | – |
| CSc1ccc(Cn2c(=O)nc(NCCc3cnc(N)[nH]3)n(Cc3ccc(OC(F)F)cc3)c2=O)cc1 [Cpd 80] | 98 | 32 | – |
| COc1ccc(Cn2c(NCCn3c(N)nc4ccccc43)nc(=O)n(Cc3ccc4c(c3)CCO4)c2=O)cc1 [Cpd 72] | 102 | 58 | – |
| NC1=Nc2cc(F)ccc2CN1CCNc1nc(=O)n(Cc2ccc(F)cc2)c(=O)n1Cc1ccc(OC(F)F)cc1 [Cpd 46] | 101 | 61 | – |
| COc1ccc(Cn2c(NCCN3Cc4ccccc4N=C3N)nc(=O)n(Cc3ccc(F)cc3)c2=O)cc1 [Cpd 12, 6-[2-(2-Amino-4H-quinazolin-3-yl)-ethylamino]-3-(4-fluoro-benzyl)-1-(4-methoxy-benzyl)-1H-[1,3,5]triazine-2,4-dione] | 94 | 28 | – |
| Nc1nc2c(F)cc(F)cc2n1CCNc1nc(=O)n(Cc2ccc(F)cc2)c(=O)n1Cc1ccc(OC(F)(F)F)cc1 [Cpd 36] | 50 | 8240 | – |
| PK1: Recombinant human prokineticin-1 expressed in HEK 293 cells; preparation holds full-length ligand and a four C-terminal residue truncated product (protein, UniProt P58294 20-105, looked up, mixture with C-terminally truncated product, Recombinant human prokineticin-1 expressed in HEK 293 cells; preparation holds full-length ligand and a four C-terminal residue truncated product) Prokineticin-1: AVITGACERDVQCGAGTCCAISLWLRGLRMCTPLGREGEECHPGSHKVPFFRKRKHHTCPCLPNLLCSRFPDGRYRCSMDLKNINF | – | – | effect on tissue conductance (G) (rat ileal tissues): no significant effect; increase in Isc from baseline (rat ileal tissues; 10 nM PK1): 13.5±2. […]A/cm^2; increase in Isc from baseline (rat ileal tissues; 100 nM PK1): 28.7±2.9 µA/cm^2; EC50 (rat ileal tissues; read-out: EC50 of PK1-evoked increases in Isc, cumulative concentration-response, basolateral addition): ~8.2 nM; change in Isc compared to wild-type littermates [2]: failed to elicit a significant change |
